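Method: 48-hour compound exposure of cells in 96-well plates, five concentrations, linear interpolation of endpoints. At the TGI there is no net growth.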
Tests used:
Test in all cases: NCI anticancer screen, dose series, 48 h
A549 NSCLC = tested on: A549 NSCLC
MOLT-4 leukemia = tested on: MOLT-4 leukemia
HOP-62 NSCLC = tested on: HOP-62 NSCLC
M14 melanoma = tested on: M14 melanoma
MDA-MB-231 breast = tested on: MDA-MB-231 breast
MALME-3M melanoma = tested on: MALME-3M melanoma
OVCAR-4 ovarian = tested on: OVCAR-4 ovarian
HT29 colon = tested on: HT29 colon
EKVX NSCLC = tested on: EKVX NSCLC
LOX IMVI melanoma = tested on: LOX IMVI melanoma
SR leukemia = tested on: SR leukemia
ACHN renal = tested on: ACHN renal
COLO 205 colon = tested on: COLO 205 colon
HOP-92 NSCLC = tested on: HOP-92 NSCLC
TK-10 renal = tested on: TK-10 renal
HS 578T breast = tested on: HS 578T breast
HCT-116 colon = tested on: HCT-116 colon
DU-145 prostate = tested on: DU-145 prostate
MDA-N = tested on: MDA-N
IGROV1 ovarian = tested on: IGROV1 ovarian
U251 CNS = tested on: U251 CNS
UACC-257 melanoma = tested on: UACC-257 melanoma
CCRF-CEM leukemia = tested on: CCRF-CEM leukemia
KM12 colon = tested on: KM12 colon
HCT-15 colon = tested on: HCT-15 colon
RPMI-8226 leukemia = tested on: RPMI-8226 leukemia
OVCAR-5 ovarian = tested on: OVCAR-5 ovarian
A498 renal = tested on: A498 renal
RXF 393 renal = tested on: RXF 393 renal
T-47D breast = tested on: T-47D breast
BT-549 breast = tested on: BT-549 breast
SK-MEL-28 melanoma = tested on: SK-MEL-28 melanoma
UACC-62 melanoma = tested on: UACC-62 melanoma
SK-MEL-2 melanoma = tested on: SK-MEL-2 melanoma
SK-OV-3 ovarian = tested on: SK-OV-3 ovarian
UO-31 renal = tested on: UO-31 renal
NCI-H226 lung = tested on: NCI-H226 lung
MCF7 breast = tested on: MCF7 breast
NCI/ADR-RES ovarian = tested on: NCI/ADR-RES ovarian
NCI-H460 lung = tested on: NCI-H460 lung
SN12C renal = tested on: SN12C renal
SF-268 CNS = tested on: SF-268 CNS
SK-MEL-5 melanoma = tested on: SK-MEL-5 melanoma
SNB-19 CNS = tested on: SNB-19 CNS
NCI-H522 lung = tested on: NCI-H522 lung
SW-620 colon = tested on: SW-620 colon
786-0 renal = tested on: 786-0 renal
SF-539 CNS = tested on: SF-539 CNS
HL-60(TB) leukemia = tested on: HL-60(TB) leukemia
MDA-MB-435 = tested on: MDA-MB-435
PC-3 prostate = tested on: PC-3 prostate
OVCAR-8 ovarian = tested on: OVCAR-8 ovarian
SF-295 CNS = tested on: SF-295 CNS
NCI-H23 lung = tested on: NCI-H23 lung
K-562 leukemia = tested on: K-562 leukemia
SNB-75 CNS = tested on: SNB-75 CNS
HCC-2998 colon = tested on: HCC-2998 colon

Measured: TGI

COc1ccccc1Nc1nc(N)nc(N)c1N=O
> 100 µM: A549 NSCLC | MOLT-4 leukemia | HOP-62 NSCLC | M14 melanoma | MDA-MB-231 breast | MALME-3M melanoma | OVCAR-4 ovarian | HT29 colon | EKVX NSCLC | LOX IMVI melanoma | SR leukemia | ACHN renal | COLO 205 colon | HOP-92 NSCLC | TK-10 renal | HS 578T breast | HCT-116 colon | DU-145 prostate | MDA-N | IGROV1 ovarian | U251 CNS | UACC-257 melanoma | CCRF-CEM leukemia | KM12 colon | HCT-15 colon | RPMI-8226 leukemia | OVCAR-5 ovarian | A498 renal | RXF 393 renal | T-47D breast | BT-549 breast | SK-MEL-28 melanoma | UACC-62 melanoma | SK-MEL-2 melanoma | SK-OV-3 ovarian | UO-31 renal | NCI-H226 lung | MCF7 breast | NCI/ADR-RES ovarian | NCI-H460 lung | SN12C renal | SF-268 CNS | SK-MEL-5 melanoma | SNB-19 CNS | NCI-H522 lung | SW-620 colon | 786-0 renal | SF-539 CNS | HL-60(TB) leukemia | MDA-MB-435 | PC-3 prostate | OVCAR-8 ovarian | SF-295 CNS | NCI-H23 lung | K-562 leukemia | SNB-75 CNS | HCC-2998 colon

From PubChem BioAssay (NCI)
